Reference: paper PMC7280082 (Acta Pharmaceutica Sinica. B, 2019)

Tests used:
[1] = system: HIV-1 K103N mutant strain; experiment: microbe, parasite or virus in culture; type: cell-based; settings: for SI K103N: CC50/EC50; for EC50: Human immunodeficiency virus 1, MT4, read-out: EC50 K103N; for RF K103N: ratio of EC50 (resistant viral strain)/EC50 (wild-type viral strain)
[2] = system: HIV-1 F227L + V106A double-mutant strain; experiment: microbe, parasite or virus in culture; type: cell-based; settings: for SI F227L + V106A: CC50/EC50; for EC50: Human immunodeficiency virus 1, MT4, read-out: EC50 F227L + V106A; for RF F227L + V106A: ratio of EC50 (resistant viral strain)/EC50 (wild-type viral strain)
[3] = system: HIV-1 Y181C mutant strain; experiment: microbe, parasite or virus in culture; type: cell-based; settings: for SI Y181C: CC50/EC50; for EC50: Human immunodeficiency virus 1, MT4, read-out: EC50 Y181C; for RF Y181C: ratio of EC50 (resistant viral strain)/EC50 (wild-type viral strain)
[4] = system: HIV-1 E138K mutant strain; experiment: microbe, parasite or virus in culture; type: cell-based; settings: for SI E138K: CC50/EC50; for EC50: Human immunodeficiency virus 1, MT4, read-out: EC50 E138K; for RF E138K: ratio of EC50 (resistant viral strain)/EC50 (wild-type viral strain)
[5] = system: HIV-1 RES056 (K103N + Y181C) double-mutant strain; experiment: microbe, parasite or virus in culture; type: cell-based; settings: for SI RES056: CC50/EC50; for EC50: Human immunodeficiency virus 1, MT4, read-out: EC50 RES056; for RF RES056: ratio of EC50 (resistant viral strain)/EC50 (wild-type viral strain)
[6] = system: WT HIV-1 (IIIB); experiment: microbe, parasite or virus in culture; type: cell-based; settings: for EC50: Human immunodeficiency virus 1, IIIB, MT4, read-out: EC50 IIIB; for SI IIIB: ratio of CC50/EC50
[7] = target: WT HIV-1 RT (Human immunodeficiency virus type 1 group M subtype B, UniProt P03366); experiment: Recombinant HIV-1 RT inhibitory assay; type: biochemical
[8] = system: HIV-1 Y188L mutant strain; experiment: microbe, parasite or virus in culture; type: cell-based; settings: for SI Y188L: CC50/EC50; for EC50: Human immunodeficiency virus 1, MT4, read-out: EC50 Y188L; for RF Y188L: ratio of EC50 (resistant viral strain)/EC50 (wild-type viral strain)
[9] = system: HIV-1 L100I mutant strain; experiment: microbe, parasite or virus in culture; type: cell-based; settings: for SI L100I: CC50/EC50; for EC50: Human immunodeficiency virus 1, MT4, read-out: EC50 L100I; for RF L100I: ratio of EC50 (resistant viral strain)/EC50 (wild-type viral strain)
[10] = system: HIV-2 strain (ROD); experiment: Anti-HIV-2; type: cell-based; settings: for EC50: Human immunodeficiency virus 2, MT4, read-out: EC50 ROD; for SI ROD: ratio of CC50/EC50
[11] = Cytotoxicity in mock-infected MT-4 cell cultures, MTT method; settings: human, mock-infected MT-4 cells

| SMILES | SI K103N [1] | EC50 [1] [nM] | RF K103N [1] | SI F227L + V106A [2] | EC50 [2] [nM] | RF F227L + V106A [2] | SI Y181C [3] | EC50 [3] [nM] | RF Y181C [3] | SI E138K [4] | EC50 [4] [nM] | RF E138K [4] | SI RES056 [5] | EC50 [5] [nM] | RF RES056 [5] | EC50 [6] [nM] | SI IIIB [6] | IC50 [7] [nM] | SI Y188L [8] | EC50 [8] [nM] | also measured |
| --- | --- | --- | --- | --- | --- | --- | --- | --- | --- | --- | --- | --- | --- | --- | --- | --- | --- | --- | --- | --- | --- |
| Cc1cc(-c2ccsc2)cc(C)c1Oc1nc(NC2CCN(Cc3ccc(S(N)(=O)=O)cc3)CC2)nc2ccsc12 [Compound 17, 4-((4-((4-(2,6-Dimethyl-4-(thiophen-3-yl)phenoxy)thieno[3,2-d]pyrimidin-2-yl)amino)piperidin-1-yl)methyl)benzenesulfonamide] | 865 | 17.9 ± 1.51 | 0.6 | 272 | 56.8 ± 3.85 | 1.8 | 245 | 63.2 ± 16.1 | 2.0 | 295 | 52.5 ± 11.3 | 1.7 | 17 | 932 ± 88.4 | 29.5 | 31.6 ± 17.7 | 489 | 167 ± 14 | 249 | 62 ± 5.83 | RF Y188L [8]: 2.0; SI L100I [9]: 203; EC50 [9]: 76 ± 17.2 nM; RF L100I [9]: 2.4; EC50 [10]: 4800 ± 916 nM; SI ROD [10]: 3; CC50 at 5 days [11]: 15400 ± 5860 nM |
| Cc1cc(-c2ccccc2)cc(C)c1Oc1nc(NC2CCN(Cc3ccc(S(N)(=O)=O)cc3)CC2)nc2ccsc12 [Compound 19, 4-((4-((4-((3,5-Dimethyl-[1,1′-biphenyl]-4-yl)oxy)thieno[3,2-d]pyrimidin-2-yl)amino)piperidin-1-yl)methyl)benzenesulfonamide] | 356 | 59.9 ± 6.01 | 1.4 | 106 | 200 ± 10.4 | 4.6 | 127 | 167 ± 24.5 | 3.8 | 200 | 107 ± 18.8 | 2.4 | 12 | 1710 ± 473 | 39.1 | 43.8 ± 15.6 | 487 | 164 ± 5 | 176 | 121 ± 9.19 | RF Y188L [8]: 2.8; SI L100I [9]: 62; EC50 [9]: 344 ± 117 nM; RF L100I [9]: 7.9; EC50 [10]: 6140 ± 272 nM; SI ROD [10]: 3; CC50 at 5 days [11]: 21300 ± 1260 nM |
| Cc1cc(-c2ccccc2)cc(C)c1Oc1nc(NC2CCN(Cc3ccc(C(N)=O)cc3)CC2)nc2ccsc12 [Compound 20, 4-((4-((4-((3,5-Dimethyl-[1,1′-biphenyl]-4-yl)oxy)thieno[3,2-d]pyrimidin-2-yl)amino)piperidin-1-yl)methyl)benzamide] | 171 | 102 ± 2.5 | 2.1 | 44 | 395 ± 5.14 | 8.3 | 89 | 196 ± 54.6 | 4.1 | 120 | 146 ± 12.5 | 3.1 | 10 | 1733 ± 5.51 | 36.3 | 47.7 ± 11.8 | 367 | 161 ± 14 | 85 | 205 ± 13.6 | RF Y188L [8]: 4.3; SI L100I [9]: 42; EC50 [9]: 416 ± 87.9 nM; RF L100I [9]: 8.7; EC50 [10]: 3840 ± 1760 nM; SI ROD [10]: 5; CC50 at 5 days [11]: 17500 ± 6180 nM |
